For data set [1] the following is noted: mouse, in vivo, po.
Source text: (§2) In addition, changes in body weight and food intake were observed by measuring the body weight and food intake at daily intervals from the start (day 0) to the end (day 11) of the animal experiment.
(§3) 7-Week-old C57BL/6J mice were purchased from Central Lab. Animal Inc. (Seoul, Korea) and acclimatized for 7 days to an experimental environment, which was maintained at constant humidity and constant temperature under a 12-hour light/dark cycle, while allowing them to access solid feed and water ad libitum. After 7 days of acclimatization period, the mice were divided into normal group, control group, positive control group (sulfasalazine), and BA experimental group (broussochalcone A) (Table 1).
(§4) Sulfasalazine (Sigma, USA) was quantified at 150 mg and dissolved in 1 ml of DMSO to prepare an SUL solution. 9 ml of Koliphor EL was diluted in PBS to prepare a 10% (v/v) Koliphor solution. The SUL solution was mixed with 9 ml of 10% (v/v) Koliphor solution to prepare an SUL specimen. Then, the SUL specimen was quantified and orally administered at 100 μl/10 g·body weight (bw) to the positive control group. […]
(§5) Broussochalcone A (Natural Products Bank, Korea) was quantified at 20 mg and dissolved in 1 ml of DMSO to prepare a BA solution. […] Then, the BA specimen was quantified and orally administered at 100 μl/10 g·body weight (bw) to the BA experimental group. […]
Data set [2] relates to colon tissues of ulcerative colitis-induced mice. The data set can be described thus: Histological analysis (H&E staining) of colon tissues of ulcerative colitis-induced mice. The format is in vivo, C57BL/6J mice. Particulars: 4 μm paraffin sections, colon extracted on day 11. How it is done: (§1) On day 11, the mice were sacrificed by intraperitoneal injection of Alfaxan (Jurox Pty Limited, Australia), and then the colon, which ranges from the cecum site to the site immediately before the anus, was extracted. After all colonic contents in the colon tissues were removed, some specimens were fixed in 4% (v/v) paraformaldehyde fixative for use as pathological specimens, and the other specimens were stored frozen at −80° C. for molecular biological analysis.
The colon tissues stored frozen in Example 3 were fixed in 4% paraformaldehyde for 48 hours and then washed with PBS. The fixed tissues were embedded in paraffin, cut into 4 μm thickness, and stained with hematoxylin and eosin. Then, the stained tissues were observed under a microscope.

The subject of the next data set is myeloperoxidase (MPO). The data set can be described thus: Myeloperoxidase (MPO) activity in colon tissues of ulcerative colitis-induced mice. Particulars: colon tissue, day 11; absorbance at 412 nm, average of three measurements. The format is in vivo, C57BL/6J mice. The method, then:
as §1
For the mice for which ulcerative colitis had been induced by DSS, activity of MPO, an inflammatory indicator, was checked.
The colon tissues stored frozen in Example 3 were analyzed using the […] Colorimetric Activity Assay Kit (Sigma, USA), in which absorbance at a wavelength of 412 nm was measured three times to calculate an average value.

Data set [3] deals with ulcerative colitis-induced mice. The data set is described as follows: Disease activity index (DAI) in DSS-induced ulcerative colitis mice. Conditions: 3% (w/v) DSS in drinking water from day 3; specimen orally at 100 μl/10 g bw; compared with control group. The format is in vivo, C57BL/6J mice. How it is done:
The normal group received a mixture of 9 ml of Koliphor EL (Sigma, USA) and 1 ml of DMSO at the same dose as the BA experimental group. The normal group was allowed to access water ad libitum during the experimental period.
The control group received a mixture of 9 ml of Koliphor EL (Sigma, USA) and 1 ml of DMSO at the same dose as the BA experimental group.
During the experimental period, the mice were caused to defecate once a day. Feces appearance was observed and fecal occult blood was observed using the Beckman Coulter Hemoccult Single Slides (Beckman Coulter, Inc., USA). The observation results were expressed in scores according to the criteria in Table 2.
Disease activity index (DAI)=(Fecal consistency+fecal color)/2

A short description of data set [4]: Changes in body weight of ulcerative colitis-induced mice. It is filed as in vivo, C57BL/6J mice. Conditions: 3% (w/v) DSS from day 3; oral 100 μl/10 g bw; measured daily from day 0. How it is done:
Since ulcerative colitis-induced animals lose weight, a symptom-alleviating effect was checked by measuring changes in body weight.
For the respective normal group, control group, positive control group, and BA experimental group prepared in Example 1, the body weight was measured using a precision balance at the start of the experiment (day 0), and changes in body weight were measured at daily intervals for comparison.

Data set [5] has as its system ulcerative colitis-induced mice. The data set can be described thus: Colon length in DSS-induced ulcerative colitis mice. The format is in vivo, C57BL/6J mice. Particulars: 3% (w/v) DSS from day 3; oral 100 μl/10 g bw; colon extracted on day 11. How it is done: as §1
A short description of data set [6]: Food intake by ulcerative colitis-induced mice. Particulars: 3% (w/v) DSS from day 3; oral 100 μl/10 g bw; measured daily, day 0 to day 11.
Source text: as §2, §3, §4, §5

Where two headings read alike, the source gives them in different places.

`O=C(O)c1cc(/N=N/c2ccc(S(=O)(=O)Nc3ccccn3)cc2)ccc1O` [sulfasalazine, Sulfasalazine]: the “food intake compared with the normal group” value in data set [1] was “a decrease in food intake”. In data set [2], the “histological changes in colon tissue: goblet cells and surface epithelium” value was “had lost goblet cells and surface epithelium”; the “histological changes in colon tissue: immune cell penetration” value is reported as “many immune cells had penetrated the colon tissues”; the “histological changes in colon tissue: structure of the mucosa” value is given as “the structure of the mucosa was partially maintained”. The “increase in MPO activity as compared with the normal group” value with myeloperoxidase (MPO) is listed as “about 1.5 fold”. The “Disease activity index (DAI) = (fecal consistency + fecal color)/2” value in data set [3] was “high DAI”. The “decrease in body weight” value in data set [4] is given as “about 20%”. Further, the “colon length shorter than that of the normal group” value in data set [5] is given as “about 2.8 cm”.

`CC(C)=CCc1cc(C(=O)/C=C/c2ccc(O)c(O)c2)c(O)cc1O` [broussochalcone A]: the “food intake compared with the normal group” value in data set [6] is “an increase in food intake as compared with the normal group”. The “histological changes in colon tissue: structure of the mucosa” value in data set [2] is “the structure of the mucosa was maintained”. Also, the “MPO activity as compared with the normal group (in words)” value in the data set on myeloperoxidase (MPO) is given as “did not exhibit significantly different MPO activity as compared with the normal group”. Also, the “Disease activity index (DAI) = (fecal consistency + fecal color)/2” value in data set [3] is “lower DAI than the control group”. In addition, the “decrease in body weight” value in data set [4] is recorded as “about 5%”. The “colon length compared with the normal group (in words)” value in data set [5] is on record as “colon length similar to that of the normal group”.

These data come from US11471425B2, “Pharmaceutical composition containing broussochalcone a as active ingredient for treatment of inflammatory bowel disease” (BIOPHARMARESEARCHLAB CO., LTD., priority 2017, dated 2022).
